Data: patent publication US12281122B1, “PI3K inhibitors” (Cogent Biosciences, Inc., priority 2023, dated 2025)
pIC50: −log10 of the molar value.

Tests used:
[1] = test system: SKBR3 (PI3Kα-Wild Type) cell line; test: HTRF phospho-AKT(S473) cell assay in SKBR3 cells; assay type: cell-based, human
Outline: (§1)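 pAKT(S473) in lysates read by HTRF after a 2 h, 37 °C compound exposure (12-point 1:3 series, max 0.5% DMSO). SKBR3 (wild type, top 10 μM) received 70 ng/ml PDGF-BB during the final 15 min; T47D (H1047R, top 5 μM) was unstimulated. IC50 values derived from the dose-response.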

[2] = test system: T47D (PI3Kα-H1047R) cell line; test: HTRF phospho-AKT(S473) cell assay in T47D cells; assay type: cell-based, human
Outline: as §1

[3] = Homo sapiens, SK-BR-3; SKBR3 (PI3Kα-Wild Type) cells, HTRF phospho-AKT(S473), 2 hours compound incubation, PDGF-BB stimulated
[4] = Homo sapiens; T47D (PI3Kα-H1047R) cells, HTRF phospho-AKT(S473), 2 hours compound incubation
[5] = Homo sapiens, SK-BR-3; HTRF phospho-AKT(S473), SKBR3 (PI3Kα-Wild Type) cells, 2 hours compound incubation, PDGF-BB stimulated
[6] = Homo sapiens; HTRF phospho-AKT(S473), T47D (PI3Kα-H1047R) cells, 2 hours compound incubation

Row | SMILES | pIC50 [1, 3] | pIC50 [2, 4] | pIC50 [1, 5] | pIC50 [2, 6]
1 | Cc1cc([C@@H](C)Nc2ccc(Cl)nc2C(=O)NS(C)(=O)=O)c2nc(N3CCC(c4cnccn4)CC3)n(C)c(=O)c2c1 [Compound 398, (R)-6-chloro-3-((1-(3,6-dimethyl-4-oxo-2-(4-(pyrazin-2-yl)piperidin-1-yl)-3,4-dihydroquinazolin-8-yl)ethyl)amino)-N-(methylsulfonyl) picolinamide] | ≤ 5.30 | 6.30 to 6.60 | – | –
2 | Cc1cc([C@@H](C)Nc2ccc(Cl)nc2C(=O)NS(C)(=O)=O)c2nc(N3CC[C@H](Nc4ncc(F)cn4)C3)n(C)c(=O)c2c1 [Compound 737, 6-chloro-3-(((R)-1-(2-((S)-3-((5-fluoropyrimidin-2-yl)amino)pyrrolidin-1-yl)-3,6-dimethyl-4-oxo-3,4-dihydroquinazolin-8-yl)ethyl)amino)-N-(methylsulfonyl) picolinamide] | – | – | ≤ 5.30 | 6.30 to 6.60
3 | Cc1cc([C@@H](C)Nc2ccc(Cl)nc2C(=O)NS(C)(=O)=O)c2nc(N3CCN(c4ccnc(C(F)(F)F)n4)CC3)n(C)c(=O)c2c1 [Compound 589, (R)-6-chloro-3-((1-(3,6-dimethyl-4-oxo-2-(4-(2-(trifluoromethyl)pyrimidin-4-yl)piperazin-1-yl)-3,4-dihydroquinazolin-8-yl)ethyl)amino)-N-(methylsulfonyl) picolinamide] | – | – | ≤ 5.30 | 6.30 to 6.60
4 | Cc1cc([C@@H](C)Nc2ccc(Cl)nc2C(=O)NS(C)(=O)=O)c2nc(N3CC[C@H](Oc4ccc(F)cc4)C3)n(C)c(=O)c2c1 (relative stereo) [Compound 691, 6-chloro-3-(((R)-1-(2-((R*)-3-(4-fluorophenoxy)pyrrolidin-1-yl)-3,6-dimethyl-4-oxo-3,4-dihydroquinazolin-8-yl)ethyl)amino)-N-(methylsulfonyl) picolinamide] | – | – | ≤ 5.30 | 6.30 to 6.60
5 | Cc1cc([C@@H](C)Nc2ccc(Cl)nc2C(=O)NS(C)(=O)=O)c2nc(N3Cc4cn(-c5ccccn5)nc4C3)n(C)c(=O)c2c1 [Compound 688, (R)-6-chloro-3-((1-(3,6-dimethyl-4-oxo-2-(2-(pyridin-2-yl)-2,6-dihydropyrrolo[3,4-c]pyrazol-5(4H)-yl)-3,4-dihydroquinazolin-8-yl)ethyl)amino)-N-(methylsulfonyl) picolinamide] | – | – | ≤ 5.30 | 6.30 to 6.60
6 | Cc1cc([C@@H](C)Nc2ccc(Cl)nc2C(=O)NS(C)(=O)=O)c2nc(N3C[C@@H]4C(c5cnc(C(F)F)nc5)[C@@H]4C3)n(C)c(=O)c2c1 (stereo partly drawn) [Compound 536, 6-chloro-3-(((1R)-1-(2-((1R,5S)-6-(2-(difluoromethyl)pyrimidin-5-yl)-3-azabicyclo[3.1.0]hexan-3-yl)-3,6-dimethyl-4-oxo-3,4-dihydroquinazolin-8-yl)ethyl)amino)-N-(methylsulfonyl) picolinamide] | – | – | 5.30 to 6.00 | > 6.60
7 | Cc1cc([C@@H](C)Nc2ccc(Cl)nc2C(=O)NS(C)(=O)=O)c2nc(N3CCN(c4ccc(F)cn4)CC3)n(C)c(=O)c2c1 [Compound 574, (R)-6-chloro-3-((1-(2-(4-(5-fluoropyridin-2-yl)piperazin-1-yl)-3,6-dimethyl-4-oxo-3,4-dihydroquinazolin-8-yl)ethyl)amino)-N-(methylsulfonyl) picolinamide] | – | – | 5.30 to 6.00 | 6.30 to 6.60
8 | Cc1cc([C@@H](C)Nc2ccc(Cl)nc2C(=O)NS(C)(=O)=O)c2nc(N3C[C@@H]4[C@H](C3)[C@H]4c3ccn(C)n3)n(C)c(=O)c2c1 [Compound 295, 6-chloro-3-(((R)-1-(3,6-dimethyl-2-((1R,5S,6R)-6-(1-methyl-1H-pyrazol-3-yl)-3-azabicyclo[3.1.0]hexan-3-yl)-4-oxo-3,4-dihydroquinazolin-8-yl)ethyl)amino)-N-(methylsulfonyl) picolinamide] | 5.30 to 6.00 | > 6.60 | – | –
9 | Cc1cc([C@@H](C)Nc2ccc(Cl)nc2C(=O)NS(C)(=O)=O)c2nc(N3CCC(c4ccc(C)nn4)CC3)n(C)c(=O)c2c1 [Compound 264, (R)-6-chloro-3-((1-(3,6-dimethyl-2-(4-(6-methylpyridazin-3-yl)piperidin-1-yl)-4-oxo-3,4-dihydroquinazolin-8-yl)ethyl)amino)-N-(methylsulfonyl) picolinamide] | 5.30 to 6.00 | > 6.60 | – | –
10 | Cc1cc([C@@H](C)Nc2ccc(Cl)nc2C(=O)NS(C)(=O)=O)c2nc(N3Cc4ccc(-c5ccnc(C)c5)cc4C3)n(C)c(=O)c2c1 [Compound 709, (R)-6-chloro-3-((1-(3,6-dimethyl-2-(5-(2-methylpyridin-4-yl)isoindolin-2-yl)-4-oxo-3,4-dihydroquinazolin-8-yl)ethyl)amino)-N-(methylsulfonyl) picolinamide] | – | – | ≤ 5.30 | 6.30 to 6.60
11 | Cc1cc([C@@H](C)Nc2ccc(Cl)nc2C(=O)NS(C)(=O)=O)c2nc(-c3ccc4c(c3)ncn4C)n(C)c(=O)c2c1 [Compound 833, (R)-6-chloro-3-((1-(3,6-dimethyl-2-(1-methyl-1H-benzo[d]imidazol-5-yl)-4-oxo-3,4-dihydroquinazolin-8-yl)ethyl)amino)-N-(methylsulfonyl) picolinamide] | – | – | 5.30 to 6.00 | 6.30 to 6.60
12 | Cc1cc([C@@H](C)Nc2ccc(Cl)nc2C(=O)NS(C)(=O)=O)c2nc(N3CCC(c4n[nH]cc4F)CC3)n(C)c(=O)c2c1 [Compound 420, (R)-6-chloro-3-((1-(2-(4-(4-fluoro-1H-pyrazol-3-yl)piperidin-1-yl)-3,6-dimethyl-4-oxo-3,4-dihydroquinazolin-8-yl)ethyl)amino)-N-(methylsulfonyl) picolinamide] | 5.30 to 6.00 | 6.30 to 6.60 | – | –
13 | Cc1cc([C@@H](C)Nc2ccc(Cl)nc2C(=O)NS(C)(=O)=O)c2nc(N3C[C@@H]4[C@H](C3)[C@H]4c3ncn(C(C)C)n3)n(C)c(=O)c2c1 [Compound 551, 6-chloro-3-(((R)-1-(2-((1R,5S,6R)-6-(1-isopropyl-1H-1,2,4-triazol-3-yl)-3-azabicyclo[3.1.0]hexan-3-yl)-3,6-dimethyl-4-oxo-3,4-dihydroquinazolin-8-yl)ethyl)amino)-N-(methylsulfonyl) picolinamide] | – | – | ≤ 5.30 | > 6.60
14 | Cc1cc([C@@H](C)Nc2ccc(Cl)nc2C(=O)NS(C)(=O)=O)c2nc(N3CCC(C)(c4cc[nH]n4)CC3)n(C)c(=O)c2c1 [Compound 552, (R)-6-chloro-3-((1-(3,6-dimethyl-2-(4-methyl-4-(1H-pyrazol-3-yl)piperidin-1-yl)-4-oxo-3,4-dihydroquinazolin-8-yl)ethyl)amino)-N-(methylsulfonyl) picolinamide] | – | – | ≤ 5.30 | 6.30 to 6.60
15 | Cc1cc([C@@H](C)Nc2ccc(Cl)nc2C(=O)NS(C)(=O)=O)c2nc(N3CCC[C@H](c4cn[nH]c4)C3)n(C)c(=O)c2c1 (mixture of isomers) [Compound 168, 3-(((R)-1-(2-((RS)-3-(1H-pyrazol-4-yl)piperidin-1-yl)-3,6-dimethyl-4-oxo-3,4-dihydroquinazolin-8-yl)ethyl)amino)-6-chloro-N-(methylsulfonyl) picolinamide] | 5.30 to 6.00 | > 6.60 | – | –
16 | Cc1cc([C@@H](C)Nc2ccc(Cl)nc2C(=O)NS(C)(=O)=O)c2nc(N3CCC(c4nn(C)c5ccccc45)CC3)n(C)c(=O)c2c1 [Compound 675, (R)-6-chloro-3-((1-(3,6-dimethyl-2-(4-(1-methyl-1H-indazol-3-yl)piperidin-1-yl)-4-oxo-3,4-dihydroquinazolin-8-yl)ethyl)amino)-N-(methylsulfonyl) picolinamide] | – | – | ≤ 5.30 | 6.30 to 6.60
17 | Cc1cc([C@@H](C)Nc2ccc(Cl)nc2C(=O)NS(C)(=O)=O)c2nc(N3CC[C@H](N(C)c4ncc(Cl)cn4)C3)n(C)c(=O)c2c1 [Compound 740, 6-chloro-3-(((R)-1-(2-((S)-3-((5-chloropyrimidin-2-yl)(methyl)amino)pyrrolidin-1-yl)-3,6-dimethyl-4-oxo-3,4-dihydroquinazolin-8-yl)ethyl)amino)-N-(methylsulfonyl) picolinamide] | – | – | ≤ 5.30 | 6.30 to 6.60
18 | CC(=O)N1CCC(c2ccc(-c3nc4c([C@@H](C)Nc5ccc(Cl)nc5C(=O)NS(C)(=O)=O)cc(C)cc4c(=O)n3C)cc2)CC1 [Compound 782, (R)-3-((1-(2-(4-(1-acetylpiperidin-4-yl)phenyl)-3,6-dimethyl-4-oxo-3,4-dihydroquinazolin-8-yl)ethyl)amino)-6-chloro-N-(methylsulfonyl) picolinamide] | – | – | 5.30 to 6.00 | > 6.60
19 | Cc1cc([C@@H](C)Nc2ccc(Cl)nc2C(=O)NS(C)(=O)=O)c2nc([C@H]3[C@@H]4CN(c5ncc(Cl)cn5)C[C@@H]43)n(C)c(=O)c2c1 [Compound 825, 6-chloro-3-(((R)-1-(2-((1R,5S,6r)-3-(5-chloropyrimidin-2-yl)-3-azabicyclo[3.1.0]hexan-6-yl)-3,6-dimethyl-4-oxo-3,4-dihydroquinazolin-8-yl)ethyl)amino)-N-(methylsulfonyl) picolinamide] | – | – | ≤ 5.30 | 5.30 to 6.00
20 | Cc1cc([C@@H](C)Nc2ccc(Cl)nc2C(=O)NS(C)(=O)=O)c2nc(N3Cc4cn(C5(C(F)(F)F)CC5)nc4C3)n(C)c(=O)c2c1 [Compound 185, (R)-6-chloro-3-((1-(3,6-dimethyl-4-oxo-2-(2-(1-(trifluoromethyl)cyclopropyl)-2,6-dihydropyrrolo[3,4-c]pyrazol-5(4H)-yl)-3,4-dihydroquinazolin-8-yl)ethyl)amino)-N-(methylsulfonyl) picolinamide] | 5.30 to 6.00 | > 6.60 | – | –
